Laboratory results reported in patent publication EP1283052A1, “Pharmaceutical composition containing caspase-8 and /or caspase-9 useful for overcoming glucocorticoid- and cancer therapy-induced apoptosis of tumours” (Deutsches Krebsforschungszentrum Stiftung des öffentlichen …, priority 2001, dated 2003).

Legend:
Format in all cases: cell-based, human
P5 cells = assay: Specific apoptosis in P5 cells stably transfected with pcDNA3 or FADD-DN; conditions: 48 h, cisplatin 2 µg/ml; Fig. 2c right
Experimental: (§1) • (a) Left: P5 an CEM cells were treated with cisplatin (1-5 µg/ml) in the absence or presence of DEX (1 µM) as indicated. Proteins were extracted and expression of CD95-L, TRAIL or TNF-α was detected by Western blot analysis. The size of the proteins in kDa is indicated. Right: HeLa and P5 were treated with CD95 agonistic antibody αAPO-1 (CD95, 1 µg/ml), recombinant TRAIL protein (TRAIL, 100 ng/ml) or recombinant TNF-α protein (TNF-α, 100 ng/ml) in the absence (white bars) or presence (black bars) of DEX (1 µM). 24 h later the percentage of apoptosis was determined by annexin-staining and FACS-analysis in untreated (CO) and stimulated cells at the time points indicated. • (b) P693 and CEM cells were treated with cisplatin (2 µg/ml) in the absence or presence of DEX as indicated. 24 and 48 h following treatment cells were lysed and caspase-8 activity was determined by a fluorescent caspase-8 assay and spectroscopy. • (c) P5 cells were stable transfected with empty vector (pcDNA3), or pcDNA3 vector encoding dominant negative FADD protein (FADD-DN). Proteins were extracted from both cell lines and expression of wildtype (WT) and FADD-DN (DN) was detected by Western blot. Left: Stable transfected P5 cells were treated with αAPO-1 (1 µg/ml) and 24 h later apoptosis was determined by staining with annexin/propidium iodide and flow-cytometry. […]

CD95-L, TRAIL and TNF-α = assay: Western blot of death ligand expression in P5 and CEM cells; conditions: cisplatin alone (1-5 µg/ml), both cell types; Fig. 2a
Experimental: as §1

[1] = tested on: P5 and HeLa cervix carcinoma cells; assay: Apoptosis by annexin-V/FITC staining and flow cytometry in cervix carcinoma cells; conditions: cisplatin 2 µg/ml, absence of DEX, 24-72 h; Fig. 1b
Experimental: • (a) Human epidermoid lung cancer cells (P693) were injected into nude mice. At a tumour volume of 500 mm^3 weekly treatment with cisplatin (5mg/kg/week) was started. Cisplatin was injected intraperitoneally in the absence (CIS) or presence (DEX/CIS) of DEX which was added to the drinking water (0.28 mg/L) for the duration of the experiment. […] As controls, tumor growth of xenografts from mice which received neither cisplatin nor DEX (CO) or from mice which received DEX only (DEX) was determined. The tumour volume in each animal was measured at weekly intervals for a period of 5 weeks. Data are presented as the means +/- SD of 6 to 8 animals. • (b) The human cervical carcinoma cell lines HeLa and P5 were γ-irradiated (10 Gy) or treated with cisplatin (2 µg/ml) in the absence (white bars) or presence (black bars) of DEX (1 µM). The percentage of apoptosis was measured in untreated (CO) and stimulated cells by annexin-staining and FACS-analysis at the time points indicated. (c) P5, P693 and human leukemic T cells (CEM) cells were treated with cisplatin (2 µg/ml) in the absence or presence of DEX as indicated. 24 and 48 h following treatment cells were lysed and caspase-3 activity was determined by a fluorescent caspase-3 assay and spectroscopy.

**Q.** Which results are given for N.N.[Cl][Pt][Cl] [cisplatin]?
**A.** cisplatin-induced apoptosis (P5 cells): about 80%; expression of DILs such as CD95-L, TRAIL and TNF-α (CD95-L, TRAIL and TNF-α): enhanced expression; apoptosis [1]: detectable 24 h following treatment and increased during the next 48 and 72 h
